Experimental data reported in PubChem BioAssay (NCI).
Several values for one entry are separate records, joined by “and”; a condition that tells them apart may be missing. Equal entries are not always repeated.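 Dose response: 5 concentrations. Exposure: 48 h. Format: 96-well plates. Endpoint: linear interpolation; highest concentration if not reached. GI50 is the concentration that inhibits growth by half. TGI: concentration producing complete growth inhibition.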

Legend:
Assay in all cases: NCI tumour cell line growth inhibition, 48 h
PC-3 prostate = test system: PC-3 prostate
SK-OV-3 ovarian = test system: SK-OV-3 ovarian
RXF 393 renal = test system: RXF 393 renal
MCF7 breast = test system: MCF7 breast
IGROV1 ovarian = test system: IGROV1 ovarian
MDA-MB-435 = test system: MDA-MB-435
OVCAR-5 ovarian = test system: OVCAR-5 ovarian
HCT-116 colon = test system: HCT-116 colon
SK-MEL-28 melanoma = test system: SK-MEL-28 melanoma
SK-MEL-5 melanoma = test system: SK-MEL-5 melanoma

Structure (SMILES)	TGI (PC-3 prostate) [µM]	TGI (SK-OV-3 ovarian)	TGI (RXF 393 renal)	TGI (MCF7 breast)	TGI (IGROV1 ovarian)	TGI (MDA-MB-435) [µM]	TGI (OVCAR-5 ovarian)	TGI (HCT-116 colon)	TGI (SK-MEL-28 melanoma)	TGI (SK-MEL-5 melanoma)	GI50 (PC-3 prostate) [µM]	GI50 (SK-OV-3 ovarian)	GI50 (RXF 393 renal) [µM]	GI50 (MCF7 breast)	GI50 (IGROV1 ovarian)	GI50 (MDA-MB-435) [µM]	GI50 (OVCAR-5 ovarian) [µM]	GI50 (HCT-116 colon)	GI50 (SK-MEL-28 melanoma)	GI50 (SK-MEL-5 melanoma) [µM]
CC1=NN(c2ccc(S(=O)(=O)O)cc2)C(=O)/C1=C/c1ccc(Cl)cc1	> 100	> 100 µM	> 100 µM	> 100 µM	> 100 µM	> 100	> 100 µM	> 100 µM	> 100 µM	> 100 µM	–	–	–	–	–	–	–	–	–	–
Cc1nc(-c2nc(-c3ccc(OC(F)(F)F)cc3)no2)nn1Cc1cccc(N2CCC(S(C)(=O)=O)CC2)c1	55.2	89.8 µM	44.4 µM	48.6 µM	> 100 µM	> 100	> 100 µM	> 100 µM	> 100 µM	1.06 µM	3.59	16.3 µM	5.88	0.0136 µM	> 26.5 µM	2.9	> 65.8	< 0.01 µM	> 24.7 µM	< 0.01
C=C1C(=O)O[C@H]2C[C@@H]1CC/C(C)=C/CC/C(C)=C/CC[C@@]2(C)O	95	> 100 µM	> 100 µM	> 100 µM	74.2 µM	> 100	> 100 µM	32.8 µM	> 100 µM	> 100 µM	29.9	> 100 µM	> 100	37.3 µM	23.1 µM	57.5	> 100	17.6 µM	37.2 µM	37.7
Cn1nc(C(F)(F)F)cc1-c1c[nH]c(OCc2ccc(Cl)cc2)c(-c2ccc(Cl)c(C(F)(F)F)c2)c1=O	4.32	4.19 µM	3.4 µM	> 50 µM	> 40.5 µM	6.75	> 32.8 µM	4.51 µM	3.97 µM	1.34 µM	0.756	1.36 µM	1.13	1.22 µM	1.74 µM	1.37	1.71	0.927 µM	1.07 µM	0.568
O=[N+]([O-])c1ccc(C2=Nn3c(nnc3-c3ccc(Cl)cc3)SC2)o1	18.4	34.1 µM	21.6 µM	4.05 µM	17.1 µM	4.39	33.8 µM	15.1 µM	28 µM	25.3 µM	–	–	–	–	–	–	–	–	–	–
c1ccc2cc(NCNc3ccc4ccccc4c3)ccc2c1	> 58.3	> 100 µM	29.9 µM	25.6 µM	35 µM	3.32	51.5 µM	43.4 µM	> 88.9 µM	18.5 µM	–	–	–	–	–	–	–	–	–	–
C[C@@H]1CCC([C@@H](C)[C@H]2CC[C@H]3[C@@H]4CC[C@H]5C[C@@H](O)CC[C@]5(C)[C@H]4CC[C@]23C)=NC1	> 100	> 100 µM	> 100 µM	> 54.8 µM	> 100 µM	> 100	> 100 µM	> 100 µM	> 77.3 µM	42.8 µM	–	–	–	–	–	–	–	–	–	–
O=C([O][Hg][CH2]C1OCCOC1[CH2][Hg][O]C(=O)c1ccccc1)c1ccccc1 (configuration not stated)	14.6	34.1 µM	4.06 µM	24.4 µM	26.9 µM	29.3	36.7 µM	8.37 µM	16.8 µM	22.8 µM	6.52	19.4 µM	2.08	1.97 µM	10.1 µM	15.9	22.3	4.21 µM	5.13 µM	7.58
COC(=O)C1=COC(C)C2CN3CCc4c([nH]c5cc(OC)c(OC)cc45)C3CC12 (configuration not stated)	> 100	> 100 µM	85.8 µM	> 100 µM	> 100 µM	> 100	> 100 µM	> 100 µM	> 100 µM	> 100 µM	–	–	–	> 100 µM and 36.4 µM	> 100 µM and 45.7 µM	–	–	> 100 µM and 43.6 µM	> 100 µM and 34.2 µM	–
CC1(C)CC[C@]2(C(=O)O)CC[C@]3(C)C(=CC[C@@H]4[C@@]5(C)C[C@H](O)[C@H](O)[C@@](C)(C(=O)O)[C@@H]5CC[C@]43C)[C@@H]2C1	> 100	> 100 µM	> 100 µM	> 100 µM	> 100 µM	> 100	> 100 µM	> 100 µM	> 100 µM	> 100 µM	–	–	–	–	–	–	–	–	–	–
CC(C)(C)[Si](C)(C)OC1[C@@H](O[Si](C)(C)C(C)(C)C)[C@@H](CNC(=O)NC(=O)CF)O[C@H]1n1cnc2c(NC(=O)Nc3ccccc3)ncnc21 (some centres not stated)	> 50	> 50 µM	4.57 µM	13.2 µM	> 50 µM	> 50	> 50 µM	20.5 µM	> 50 µM	25.6 µM	2.19	> 50 µM	1.35	1.78 µM	22.5 µM	14.6	15.9	5.21 µM	> 50 µM	3.07
Cn1cc(C2=C(c3c4n(c5ccccc35)CCC(CN)C4)C(=O)NC2=O)c2ccccc21 (configuration not stated)	6.59	9.16 µM	6.47 µM	6.5 µM	8 µM	5.97	7.15 µM	5.77 µM	7.31 µM	7.82 µM	2.77	4.11 µM	3.01	2.06 µM	4 µM	2.52	2.94	2 µM	3.82 µM	3.99
O=C(/C(=C/c1ccc([N+](=O)[O-])cc1)SCc1ccc(Cl)cc1)c1ccc(F)cc1	5.74	63.5 µM	18.3 µM	4.78 µM	22.3 µM	5.87	12.1 µM	2.92 µM	16.2 µM	8.87 µM	2.12	16.6 µM	5.75	1.56 µM	3.93 µM	2.23	3	1.39 µM	4.26 µM	2.85
O=C1NC2C(=CC(O)C(O)C2O)c2cc3c(cc21)OCO3 (configuration not stated)	2.08	7.09 µM and 4.31 µM	0.805 µM and 1.43 µM and 2.16 µM	0.854 µM and 4.46 µM	9.21 µM and 3.01 µM	0.965	4.14 µM and 11.4 µM	1.18 µM and 2.77 µM	2.06 µM and 2.88 µM	0.936 µM and 5.01 µM and 1.23 µM	–	0.232 µM and 0.272 µM	0.589	0.0495 µM	0.393 µM	–	0.802	0.282 µM and 0.101 µM	0.201 µM	0.282
